The values that follow come from patent US11524940B1, “Inhibitors of cysteine proteases and methods of use thereof” (priority 2020, dated 2022).

Each structure is given as a SMILES string. Where only a bound is given, the exact number is not on record here.

Chain of 229E Mpro (P0C6X1 2966-3267 limits assumed): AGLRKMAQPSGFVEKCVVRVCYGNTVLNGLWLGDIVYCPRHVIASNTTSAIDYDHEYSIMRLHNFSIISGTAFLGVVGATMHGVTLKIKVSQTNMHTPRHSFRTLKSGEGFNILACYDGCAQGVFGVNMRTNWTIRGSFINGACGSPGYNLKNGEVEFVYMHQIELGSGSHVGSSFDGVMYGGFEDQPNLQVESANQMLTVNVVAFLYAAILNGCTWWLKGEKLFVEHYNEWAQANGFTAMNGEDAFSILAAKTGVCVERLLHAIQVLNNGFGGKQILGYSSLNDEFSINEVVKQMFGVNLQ

One assay has as its target 229E Mpro (Human coronavirus 229E (HCoV-229E), UniProt P0C6X1). Briefly: 229E Mpro activity. Type of assay: biochemical. The settings on record: 229E Mpro EC50.
Description: Compounds are assayed using standard methods to assess compound activity and IC50. […] The assay buffer contains 20 mM of Tris-HCl (pH 7.3), 100 mM of NaCl, 1 mM of EDTA, 5mM of TCEP and 0.1% BSA.
The molecule `CC1(C)CCC(C[C@@H](C#N)NC(=O)[C@H](CC2CC2)NC(=O)c2cc3cccc(Cl)c3[nH]2)C(=O)N1` (single isomer, unassigned) [Compound 749 (Isomer 1)] displayed an EC50 of 2000 to 10000 nM.

Turning to `COCCOCCOc1cccc2[nH]c(C(=O)NC(CC(C)(C)C)C(=O)NC(C#N)CC3CCCNC3=O)cc12` (single isomer, unassigned) [875 (Isomer 2)], the EC50 was < 2000 nM.

Molecule `COc1cccc2[nH]c(C(=O)N3CC4(CC3C(=O)N[C@H](C#N)C[C@@H]3CCCNC3=O)CC(F)(F)C4)cc12` (single isomer, unassigned) [723 (Isomer 1)] yielded an EC50 of 10000 to 30000 nM.

The same assay, now with this note: read-out: 229E Mpro EC50.
For `COc1cccc2[nH]c(C(=O)N[C@H](C(=O)N[C@H](C#N)C[C@@H]3CCNC3=O)[C@@H]3Cc4ccccc4O3)cc12` [Compound 147, N-((S)-2-(((S)-1-cyano-2-((S)-2-oxopyrrolidin-3-yl)ethyl)amino)-1-((S)-2,3-dihydrobenzofuran-2-yl)-2-oxoethyl)-4-methoxy-1H-indole-2-carboxamide], the EC50 was > 30000 nM.

Regarding `CC(C)C[C@H](NC(=O)CC(C)(O)c1ccc(Cl)cc1)C(=O)N[C@H](C#N)C[C@@H]1CCNC1=O` (single isomer, unassigned) [365 (Isomer 2)], the EC50 fell in the range of 2000 to 10000 nM.

As to `COc1cccc2[nH]c(C(=O)N[C@@H](CC(C)C)C(=O)N[C@H](/C=C/S(C)(=O)=O)C[C@@H]3CCNC3=O)cc12` [Compound 136, 4-methoxy-N-[(1S)-3-methyl-1-[[(E,1S)-3-methylsulfonyl-1-[[(3S)-2-oxopyrrolidin-3-yl]methyl]allyl]carbamoyl]butyl]-1H-indole-2-carboxamide], the EC50 was < 2000 nM.

`N#C[C@H](C[C@@H]1CCCNC1=O)NC(=O)[C@H](CC1CC1)NC(=O)c1[nH]c2cc(Br)ccc2c1F` [Compound 848, 6-bromo-N-[(1S)-2-[[(1S)-1-cyano-2-[(3S)-2-oxo-3-piperidyl]ethyl]amino]-1-(cyclopropylmethyl)-2-oxo-ethyl]-3-fluoro-1H-indole-2-carboxamide]: the concentration giving a half-maximal response (EC50) was < 2000 nM.

In the case of `N#C[C@H](C[C@@H]1CCNC1=O)NC(=O)[C@@H]1C[C@@H](c2ccccc2)CN1C(=O)/C=C/c1ccc(Cl)cc1F` [Compound 209, (2S,4S)-1-((E)-3-(4-chloro-2-fluorophenyl)acryloyl)-N-((S)-1-cyano-2-((S)-2-oxopyrrolidin-3-yl)ethyl)-4-phenylpyrrolidine-2-carboxamide], the EC50 was 2000 to 10000 nM.

With `COc1cccc2[nH]c(C(=O)N3CC4(CCC4)CC3C(=O)N[C@H](C#N)C[C@@H]3CCCNC3=O)cc12` (single isomer, unassigned) [719 (Isomer 2)], the EC50 is < 2000 nM.

For `COc1cccc2[nH]c(C(=O)N3C[C@H](SC)C[C@H]3C(=O)N[C@H](C#N)C[C@@H]3CCNC3=O)cc12` [Compound 551, (2S,4R)-N-[(1S)-1-cyano-2-[(3S)-2-oxopyrrolidin-3-yl]ethyl]-1-(4-methoxy-1H-indole-2-carbonyl)-4-methylsulfanyl-pyrrolidine-2-carboxamide], the EC50 was < 2000 nM.

For `N#C[C@H](C[C@@H]1CCNC1=O)NC(=O)[C@H](CC1CC1)NC(=O)c1nc2c(Cl)cc(Cl)cc2[nH]1` [Compound 525, 4,6-dichloro-N-[(1S)-2-[[(1S)-1-cyano-2-[(3S)-2-oxopyrrolidin-3-yl]ethyl]amino]-1-(cyclopropylmethyl)-2-oxo-ethyl]-1H-benzimidazole-2-carboxamide], the EC50 is < 2000 nM.

With `COc1cccc2[nH]c(C(=O)N[C@@H](CC(C)C)C(=O)N[C@H](C#N)Cc3cn(C)cn3)cc12` [Compound 227, N-[(1S)-1-[[(1S)-1-cyano-2-(1-methylimidazol-4-yl)ethyl]carbamoyl]-3-methyl-butyl]-4-methoxy-1H-indole-2-carboxamide], the EC50 was > 30000 nM.

As for `N#C[C@H](C[C@@H]1CCCNC1=O)NC(=O)[C@H](CC1CC1)NC(=O)c1cc2c(Cl)cc(F)cc2[nH]1` [Compound 824, 4-chloro-N-[(1S)-2-[[(1S)-1-cyano-2-[(3S)-2-oxo-3-piperidyl]ethyl]amino]-1-(cyclopropylmethyl)-2-oxo-ethyl]-6-fluoro-1H-indole-2-carboxamide], the EC50 was < 2000 nM.

Regarding `N#C[C@H](C[C@@H]1CCCNC1=O)NC(=O)[C@H](CC1CC1)NC(=O)c1cc2c(F)ccc(Cl)c2[nH]1` [Compound 832, 7-chloro-N-[(1S)-2-[[(1S)-1-cyano-2-[(3S)-2-oxo-3-piperidyl]ethyl]amino]-1-(cyclopropylmethyl)-2-oxo-ethyl]-4-fluoro-1H-indole-2-carboxamide], the half-maximal effective concentration (EC50) was < 2000 nM.

For the molecule `N#C[C@H](C[C@@H]1CCNC1=O)NC(=O)C1CC2(CCCCC2)CN1C(=O)c1cc2ccc(Cl)cc2[nH]1` (single isomer, unassigned) [878 (Isomer 1)], the concentration for a half-maximal effect (EC50) is < 2000 nM.

As to `N#C[C@H](C[C@@H]1CCNC1=O)NC(=O)[C@H](CC1CC1)NC(=O)c1cc2ccc(Cl)cc2[nH]1` [Compound 529, 6-chloro-N-[(1S)-2-[[(1S)-1-cyano-2-[(3S)-2-oxopyrrolidin-3-yl]ethyl]amino]-1-(cyclopropylmethyl)-2-oxo-ethyl]-1H-indole-2-carboxamide], the EC50 is < 2000 nM.

For `N#C[C@H](C[C@@H]1CCCNC1=O)NC(=O)[C@@H](CC1CC1)NC(=O)c1cc2cccc(Cl)c2[nH]1` [Compound 639A, 7-Chloro-N-[(1R)-2-[[(1S)-1-cyano-2-[(3S)-2-oxo-3-piperidyl]ethyl]amino]-1-(cyclopropylmethyl)-2-oxo-ethyl]-1H-indole-2-carboxamide], the EC50 was < 2000 nM.

For the molecule `Cc1cc(C(=O)N[C@H]2CC[C@@H]3SC[C@@H](C(=O)N[C@H](C#N)C[C@@H]4CCNC4=O)N3C2=O)no1` [Compound 459, N-((3R,6S,8aS)-3-(((S)-1-cyano-2-((S)-2-oxopyrrolidin-3-yl)ethyl)carbamoyl)-5-oxohexahydro-2H-thiazolo[3,2-a]pyridin-6-yl)-5-methylisoxazole-3-carboxamide], the EC50 was > 30000 nM.

As for `COc1cc(Cl)c2[nH]c(C(=O)N[C@@H](CC(C)(C)C)C(=O)N[C@H](C#N)C[C@@H]3CCNC3=O)cc2c1` [Compound 894], the half-maximal effective concentration (EC50) is < 2000 nM.

In the case of `N#C[C@H](C[C@@H]1CCNC1=O)NC(=O)C1CC2(CCCCC2)CN1C(=O)c1cc2cccc(Cl)c2[nH]1` (single isomer, unassigned) [984 (Isomer 1)], the EC50 is < 2000 nM.

`N#C[C@H](C[C@@H]1CCCNC1=O)NC(=O)[C@H](CC1CC1)NC(=O)c1cc2c(Cl)c(F)ccc2[nH]1` [Compound 822, 4-chloro-N-[(1S)-2-[[(1S)-1-cyano-2-[(3S)-2-oxo-3-piperidyl]ethyl]amino]-1-(cyclopropylmethyl)-2-oxo-ethyl]-5-fluoro-1H-indole-2-carboxamide]: the concentration for a half-maximal effect (EC50) was < 2000 nM.

With `N#C[C@H](C[C@@H]1CCNC1=O)NC(=O)[C@H](CC1CC1)NC(=O)c1cc2c(Cl)cccc2[nH]1` [Compound 647, 4-chloro-N-[(1S)-2-[[(1S)-1-cyano-2-[(3S)-2-oxopyrrolidin-3-yl]ethyl]amino]-1-(cyclopropylmethyl)-2-oxo-ethyl]-1H-indole-2-carboxamide], the EC50 is < 2000 nM.

Take `COc1ccc2[nH]c(C(=O)N[C@@H](CC3CC3)C(=O)N[C@H](C#N)C[C@@H]3CCCNC3=O)cc2n1` [Compound 621, N-[(1S)-2-[[(1S)-1-cyano-2-[(3S)-2-oxo-3-piperidyl]ethyl]amino]-1-(cyclopropylmethyl)-2-oxo-ethyl]-5-methoxy-1H-pyrrolo[3,2-b]pyridine-2-carboxamide]: the EC50 was < 2000 nM.

For the molecule `COc1cccc2[nH]c(C(=O)N[C@H](C(=O)N[C@H](C#N)C[C@@H]3CCNC3=O)C3Cc4ccccc4C3)cc12` [Compound 149, N-[(1S)-2-[[(1S)-1-cyano-2-[(3S)-2-oxopyrrolidin-3-yl]ethyl]amino]-1-indan-2-yl-2-oxo-ethyl]-4-methoxy-1H-indole-2-carboxamide], the EC50 was 2000 to 10000 nM.

For `COc1cccc2[nH]c(C(=O)N[C@@H](CC(C)C)C(=O)N[C@@H](C[C@@H]3CCNC3=O)C(C#N)N3CCCC3)cc12` (single isomer, unassigned) [331 (Isomer 1)], the EC50 was < 2000 nM.

For the molecule `N#C[C@H](C[C@@H]1CCCNC1=O)NC(=O)C1CC2(CCC2)CN1C(=O)c1cc2cccc(Cl)c2[nH]1` (single isomer, unassigned) [729 (Isomer 1)], the EC50 was < 2000 nM.

In the case of `N#C[C@H](C[C@@H]1CCNC1=O)NC(=O)[C@@H]1CCc2ccc(NCC(=O)Oc3ccccc3)c(=O)n21` [Compound 483, phenyl 2-[[(3S)-3-[[(1S)-1-cyano-2-[(3S)-2-oxopyrrolidin-3-yl]ethyl]carbamoyl]-5-oxo-2,3-dihydro-1H-indolizin-6-yl]amino]acetate], the EC50 is > 30000 nM.

`COc1cccc2[nH]c(C(=O)N[C@@H](CC(C)C)C(=O)N[C@H](C#N)Cc3cncn3C)cc12` [Compound 225]: the EC50 was > 30000 nM.

`N#C[C@H](C[C@@H]1CCCNC1=O)NC(=O)[C@H](CC1CC1)NC(=O)c1cc2ccc(F)c(Br)c2[nH]1` [Compound 850]: the EC50 was 10000 to 30000 nM.

For the molecule `N#C[C@H](C[C@@H]1CCNC1=O)NC(=O)[C@H](CC1CC1)n1ccc2[nH]cnc2c1=O` [Compound 269, (2S)-N-[(1S)-1-cyano-2-[(3S)-2-oxopyrrolidin-3-yl]ethyl]-3-cyclopropyl-2-(4-oxo-3H-imidazo[4,5-c]pyridin-5-yl)propanamide], the EC50 is > 30000 nM.

As for `N#C[C@H](C[C@@H]1CCCNC1=O)NC(=O)[C@H](CC1CC1)NC(=O)c1cc2c(Cl)ccc(F)c2[nH]1` [Compound 826], the EC50 was < 2000 nM.

`N#Cc1cccc2[nH]c(C(=O)N[C@@H](CC3CC3)C(=O)N[C@H](C#N)C[C@@H]3CCCNC3=O)cc12` [Compound 858]: the EC50 was < 2000 nM.

As for `COc1cccc2[nH]c(C(=O)N[C@@H](CC(C)C)C(=O)NC(C#N)Cc3cc[nH]n3)cc12` (mixture of isomers) [Compound 241, N-[(1S)-1-[[1-cyano-2-(1H-pyrazol-3-yl)ethyl]carbamoyl]-3-methyl-butyl]-4-methoxy-1H-indole-2-carboxamide], the EC50 is > 30000 nM.

In the case of `COc1cccc2[nH]c(C(=O)N[C@@H](CC(C)C)C(=O)N[C@@H](C[C@@H]3CCNC3=O)C(C#N)NCC(=O)O)cc12` (single isomer, unassigned) [653 (Isomer 2)], the EC50 was < 2000 nM.

A word on the EC50: it is the midpoint of the concentration-response curve.
